Laboratory results: PubChem BioAssay AID2060601 (Molecular Pharmacology Branch, DTP, NCI, 2025)

System: 874868-142-R-J2-PDC complex spheroids, growth % test/control
Experiment: Anticancer human tumor 874868-142-R-J2-PDC patient-derived head and neck squamous carcinoma cell line growth inhibition [CLK]
Conditions: for IC50: curve of first compound; for viability, T/C: stronger effect = lower value; active means viability on the fitted dose curve at most 10% of control; inactive means the rest
Procedure, shortened: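 Patient-derived tumor cells grown as complex spheroids with HUVEC endothelial cells and mesenchymal stem cells, treated with drug combinations. Concentrations descend in half-log steps from near clinical Cmax, or from 10 microM if Cmax unknown.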
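Further: spheroids exposed to the compounds for 7 days.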
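Wherever viability, T/C is given: 100% = DMSO vehicle control viability.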

Cn1ncnc1[C@H]1c2n[nH]c(=O)c3cc(F)cc(c23)N[C@@H]1c1ccc(F)cc1 + CNC(=O)c1ccc(Nc2nc(OC3CCCC3)c3c(-c4ccc5nc(C)oc5c4)c[nH]c3n2)c(OC)c1
inactive: viability, T/C (second compound 0.0316 µM, first compound 0.000316 µM) 97.6% | viability, T/C (second compound 0.0316 µM, first compound 0.001 µM) 92.7% | viability, T/C (second compound 0.0316 µM, first compound 0.00316 µM) 102% | viability, T/C (second compound 0.0316 µM, first compound 0.01 µM) 94.6% | viability, T/C (second compound 0.0316 µM, first compound 0.0316 µM) 85.1% | viability, T/C (second compound 0.0316 µM, first compound 0.1 µM) 73.7% | viability, T/C (second compound 0.1 µM, first compound 0.000316 µM) 85% | viability, T/C (second compound 0.1 µM, first compound 0.001 µM) 68.8% | viability, T/C (second compound 0.1 µM, first compound 0.00316 µM) 90.1% | viability, T/C (second compound 0.1 µM, first compound 0.01 µM) 79.2% | viability, T/C (second compound 0.1 µM, first compound 0.0316 µM) 73.5% | viability, T/C (second compound 0.1 µM, first compound 0.1 µM) 66.6% | viability, T/C (second compound 0.316 µM, first compound 0.000316 µM) 61.4% | viability, T/C (second compound 0.316 µM, first compound 0.001 µM) 54.3% | viability, T/C (second compound 0.316 µM, first compound 0.00316 µM) 51.5% | viability, T/C (second compound 0.316 µM, first compound 0.01 µM) 56.3% | viability, T/C (second compound 0.316 µM, first compound 0.0316 µM) 59.7% | viability, T/C (second compound 0.316 µM, first compound 0.1 µM) 46.3% | viability, T/C (second compound 1 µM, first compound 0.000316 µM) 42.7% | viability, T/C (second compound 1 µM, first compound 0.001 µM) 50.8% | viability, T/C (second compound 1 µM, first compound 0.00316 µM) 40.6% | viability, T/C (second compound 1 µM, first compound 0.01 µM) 36.9% | viability, T/C (second compound 1 µM, first compound 0.0316 µM) 40.8% | viability, T/C (second compound 1 µM, first compound 0.1 µM) 40.7% | viability, T/C (second compound 3.16 µM, first compound 0.000316 µM) 44.5% | viability, T/C (second compound 3.16 µM, first compound 0.001 µM) 36.2% | viability, T/C (second compound 3.16 µM, first compound 0.00316 µM) 39.2% | viability, T/C (second compound 3.16 µM, first compound 0.01 µM) 39% | viability, T/C (second compound 3.16 µM, first compound 0.0316 µM) 44% | viability, T/C (second compound 3.16 µM, first compound 0.1 µM) 34% | viability, T/C (second compound 10 µM, first compound 0.000316 µM) 44% | viability, T/C (second compound 10 µM, first compound 0.001 µM) 40.5% | viability, T/C (second compound 10 µM, first compound 0.00316 µM) 39.4% | viability, T/C (second compound 10 µM, first compound 0.01 µM) 39.5% | viability, T/C (second compound 10 µM, first compound 0.0316 µM) 47.6% | viability, T/C (second compound 10 µM, first compound 0.1 µM) 31%
< 0.316 nM: IC50 (second compound 1 µM) | IC50 (second compound 3.16 µM) | IC50 (second compound 10 µM)
> 100 nM: IC50 (second compound 0.0316 µM) | IC50 (second compound 0.1 µM) | IC50 (second compound 0.316 µM)
